Data as given in patent US10321682B2, “Pesticidal aryl pyrrole nitrile compound, preparation method for same, uses thereof, agricultural pesticide, and pest control method” (HENAN GOODDAYS BIOLOGY DEVELOPMENT CO., LTD., priority 2016, dated 2019).
Values after ≈ are worked out from the molar mass of the structure shown. Read-outs that look alike come from different tables or passages of the source.

Tests used:
[1] = Acute oral toxicity in rats; settings: both sexes, rat, in vivo, both female rats and male rats
[2] = Acute percutaneous toxicity in rats; settings: both sexes, rat, in vivo, topical; both female rats and male rats
[3] = Toxicity to Japanese carp; settings: in vivo
rats = settings: cited from earlier work

SMILES	LD50 [1] [mg/kg]	LD50 [2] [mg/kg]	LC50 [3] [µg/mL]	acute oral LD50 (rats; female rats) [mg/kg]	acute oral LD50 (rats; male rats) [mg/kg]
N#Cc1c(Br)c(C(F)(F)F)n(Cc2cnc(Cl)s2)c1-c1ccc(Cl)cc1 [4-bromo-2-(4-chlorophenyl)-1-(2-chloro-5-thiazolylmethyl)-5-trifluoromethylpyrrole-3-carbonitrile]	> 5000	> 2000	2.5 (≈ 5.2 µM)	–	–
CCOCn1c(-c2ccc(Cl)cc2)c(C#N)c(Br)c1C(F)(F)F [Chujin, 4-bromo-2-(4-chlorophenyl)-1-ethoxymethyl-5-trifluoromethylpyrrole-3-carbonitrile]	–	–	–	459	223
